Source: article PMC11571797, “Vitamin B6 inhibits activity of Helicobacter pylori adenylosuccinate synthetase and growth of reference and clinical, antibiotic-resistant H. pylori strains” (Journal of Enzyme Inhibition and Medicinal Chemistry, 2024)

Target: T1, adenylosuccinate synthetase (AdSS) (Helicobacter pylori, UniProt P56137)
T1 construct: gene purA
Assay: X-ray crystal structure with IMP ([…] A); enzyme inhibition, GTP-competitive, and time-dependent inactivation (IC50^eq […] without GTP)
Assay type: biochemical

T1 sequence (P56137 whole entry): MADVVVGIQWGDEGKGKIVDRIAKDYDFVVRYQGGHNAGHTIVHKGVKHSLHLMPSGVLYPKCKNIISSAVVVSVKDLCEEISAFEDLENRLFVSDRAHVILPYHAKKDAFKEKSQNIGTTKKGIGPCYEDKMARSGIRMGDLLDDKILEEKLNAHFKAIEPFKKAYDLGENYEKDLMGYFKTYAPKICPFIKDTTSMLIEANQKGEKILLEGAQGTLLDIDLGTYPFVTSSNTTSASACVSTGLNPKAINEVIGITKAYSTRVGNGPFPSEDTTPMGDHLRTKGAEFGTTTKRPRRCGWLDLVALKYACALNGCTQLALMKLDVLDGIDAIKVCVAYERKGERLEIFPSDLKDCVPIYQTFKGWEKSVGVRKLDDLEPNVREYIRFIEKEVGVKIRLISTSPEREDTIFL

Cc1ncc(COP(=O)(O)O)c(C=O)c1O [PLP, pyridoxal 5'-phosphate]
Ki: 6.95 µM
